Reference: patent US9204653B2, “5-fluoro pyrimidine derivatives” (DOW AGROSCIENCES LLC, priority 2008, dated 2015)
Where two headings read alike, the source gives them in different places.

Tested on: Mycosphaerella graminicola; Anamorph: Septoria tritici; Bayer Code SEPTTR
Assay: Leaf blotch of wheat, foliar fungicide treatment, one day protectant (1DP) or three day curative (3DC)
Assay type: in vivo, Septoria tritici on wheat plants (variety Yuma)
Details: Zymoseptoria tritici
[1] = 24 h, one day protectant (1DP), percent disease control rating, read-out: SETTTR 1DP 25 ppm
[2] = 24 h, one day protectant (1DP), percent disease control rating, read-out: SEPTTR 1DP 100 ppm
[3] = 72 h, three day curative (3DC), percent disease control rating, read-out: SEPTTR 3DC 25 ppm
[4] = 72 h, three day curative (3DC), percent disease control rating, read-out: SEPTTR 3DC 100 ppm
[5] = 24 h, one day protectant (1DP), rating of percent disease control, read-out: SETTTR 1DP 25 ppm
[6] = 24 h, one day protectant (1DP), rating of percent disease control, read-out: SEPTTR 1DP 100 ppm
[7] = 72 h, three day curative (3DC), rating of percent disease control, read-out: SEPTTR 3DC 25 ppm
[8] = 72 h, three day curative (3DC), rating of percent disease control, read-out: SEPTTR 3DC 100 ppm

| Compound | pest or weed control at 25 ppm [1] [%] | pest or weed control at 100 ppm [2] [%] | pest or weed control at 25 ppm [3] [%] | pest or weed control at 100 ppm [4] [%] | pest or weed control at 25 ppm [5] [%] | pest or weed control at 100 ppm [6] [%] | pest or weed control at 25 ppm [7] [%] | pest or weed control at 100 ppm [8] [%] |
| --- | --- | --- | --- | --- | --- | --- | --- | --- |
| COCCOc1ncc(F)c(N)n1 [Compound 172] | 0 to 25 | 0 to 25 | 0 to 25 | 0 to 25 | – | – | – | – |
| CC(Oc1ncc(F)c(N)n1)c1ccc(C(C)(C)C)cc1Cl (stereo not shown) [Compound 173] | 51 to 75 | 76 to 100 | 0 to 25 | 51 to 75 | – | – | – | – |
| COCCOC(=O)Nc1nc(OCc2ccccc2)ncc1F [Compound 174] | 76 to 100 | 76 to 100 | 76 to 100 | 76 to 100 | – | – | – | – |
| CC(Oc1ncc(F)c(N)n1)c1ccc(-c2ccc(Br)cc2)cc1 (stereo not shown) [Compound 175] | 76 to 100 | 76 to 100 | 0 to 25 | 0 to 25 | – | – | – | – |
| CCOC(=O)COC(=O)Nc1nc(OCc2ccc(C)cc2)ncc1F [Compound 176] | 51 to 75 | 76 to 100 | 76 to 100 | 76 to 100 | – | – | – | – |
| N#Cc1cccc(COc2ncc(F)c(/N=C/N3CCOCC3)n2)c1 [Compound 177] | 76 to 100 | 76 to 100 | 76 to 100 | 76 to 100 | – | – | – | – |
| Nc1nc(OCc2ccc3c(c2)OCO3)ncc1F [Compound 178] | 76 to 100 | 76 to 100 | 76 to 100 | 76 to 100 | – | – | – | – |
| CC(=O)Nc1nc(OCc2ccc(C)cc2)ncc1F [Compound 179] | 76 to 100 | 76 to 100 | 76 to 100 | 76 to 100 | – | – | – | – |
| Nc1nc(O/N=C2\CCc3ccccc32)ncc1F [Compound 181] | 76 to 100 | 76 to 100 | 76 to 100 | 76 to 100 | – | – | – | – |
| CNC(=S)Nc1nc(OCc2ccc(C)cc2)ncc1F [Compound 182] | – | – | – | – | 76 to 100 | 76 to 100 | 76 to 100 | 76 to 100 |
| N#Cc1cccc(COc2ncc(F)c(NC(=O)NCc3ccccc3)n2)c1 [Compound 183] | – | – | – | – | 0 to 25 | 0 to 25 | 0 to 25 | 0 to 25 |
| Nc1nc(OCc2ccc(C(F)(F)F)nc2)ncc1F [Compound 184] | – | – | – | – | 76 to 100 | 76 to 100 | 51 to 75 | 76 to 100 |
| COc1cc(F)c(COc2ncc(F)c(N)n2)cn1 [Compound 185] | – | – | – | – | 76 to 100 | 76 to 100 | 76 to 100 | 76 to 100 |
| CCCNC(=O)Nc1nc(OCc2ccc(F)cc2)ncc1F [Compound 186] | – | – | – | – | 51 to 75 | 51 to 75 | 0 to 25 | 0 to 25 |
| Cc1cccc(COc2ncc(F)c(N)n2)c1 [Compound 188] | – | – | – | – | 76 to 100 | 76 to 100 | 76 to 100 | 76 to 100 |
| COc1cccc(COc2ncc(F)c(NC(=O)c3ccccc3)n2)c1 [Compound 191] | – | – | – | – | 76 to 100 | 76 to 100 | 76 to 100 | 76 to 100 |
| CC(=O)OC[C@H]1O[C@@H](Oc2ncc(F)c(N)n2)[C@H](OC(C)=O)[C@@H](OC(C)=O)[C@@H]1OC(C)=O [Compound 192] | – | – | – | – | 76 to 100 | 76 to 100 | 51 to 75 | 76 to 100 |
| Nc1nc(OCc2ccc(OCc3ccccc3)cc2)ncc1F [Compound 193] | – | – | – | – | 76 to 100 | 76 to 100 | 76 to 100 | 76 to 100 |
| Nc1nc(OCc2c(F)cc(F)cc2F)ncc1F [Compound 194] | – | – | – | – | 76 to 100 | 76 to 100 | 76 to 100 | 76 to 100 |
| OCNc1nc(OCc2cccs2)ncc1F [Compound 196] | – | – | – | – | 76 to 100 | 76 to 100 | 76 to 100 | 76 to 100 |
| CC(C)c1ccc(COc2ncc(F)c(N)n2)cc1 [Compound 197] | – | – | – | – | 51 to 75 | 76 to 100 | 51 to 75 | 76 to 100 |
| CCOC(=O)COC(=O)Nc1nc(OCc2cccc(F)c2)ncc1F [Compound 199] | – | – | – | – | 0 to 25 | 76 to 100 | 51 to 75 | 76 to 100 |

| Compound | pest or weed control at 25 ppm [1] [%] | pest or weed control at 100 ppm [2] [%] | pest or weed control at 25 ppm [3] [%] | pest or weed control at 100 ppm [4] [%] | pest or weed control at 25 ppm [5] [%] | pest or weed control at 100 ppm [6] [%] | pest or weed control at 25 ppm [7] [%] | pest or weed control at 100 ppm [8] [%] |
| --- | --- | --- | --- | --- | --- | --- | --- | --- |
| COc1ccc(COc2ncc(F)c(NSc3ccccc3[N+](=O)[O-])n2)cc1F [Compound 200] | – | – | – | – | 0 to 25 | 26 to 50 | 0 to 25 | 0 to 25 |
| COc1cccc(COc2ncc(F)c(NC(=O)NCc3ccccc3F)n2)c1 [Compound 201] | – | – | – | – | 0 to 25 | 0 to 25 | 0 to 25 | 0 to 25 |
| Fc1ccc(COc2ncc(F)c(NC3CCCCC3)n2)cc1 [Compound 205] | – | – | – | – | 0 to 25 | 0 to 25 | 0 to 25 | 51 to 75 |
| Cc1ccc(COc2ncc(F)c(NC(=O)Nc3ccccc3F)n2)cc1 [Compound 208] | – | – | – | – | 0 to 25 | 0 to 25 | 0 to 25 | 26 to 50 |
| Nc1nc(OCc2ccc(F)c(F)c2)ncc1F [Compound 210] | – | – | – | – | 76 to 100 | 76 to 100 | 76 to 100 | 76 to 100 |
| Nc1nc(OCc2cccc(I)c2)ncc1F [Compound 212] | – | – | – | – | 76 to 100 | 76 to 100 | 76 to 100 | 76 to 100 |
| Nc1nc(OCc2cccs2)ncc1F [Compound 213] | – | – | – | – | 76 to 100 | 76 to 100 | 76 to 100 | 76 to 100 |
| COc1ccc(COc2ncc(F)c(NCO)n2)cc1F [Compound 216] | – | – | – | – | 76 to 100 | 76 to 100 | 51 to 75 | 76 to 100 |
| Nc1nc(OCC2Cc3ccccc3O2)ncc1F (stereo not shown) [Compound 219] | – | – | – | – | 51 to 75 | 76 to 100 | 0 to 25 | 51 to 75 |
| O=C(Nc1nc(OCc2ccc(F)cc2)ncc1F)OCc1ccccc1 [Compound 220] | – | – | – | – | 76 to 100 | 76 to 100 | 76 to 100 | 76 to 100 |
| COc1ccccc1Oc1ncc(F)c(N)n1 [Compound 223] | – | – | – | – | 76 to 100 | 76 to 100 | 76 to 100 | 76 to 100 |
| COc1ccc(Br)c(COc2ncc(F)c(N)n2)c1F [Compound 224] | – | – | – | – | 26 to 50 | 76 to 100 | 0 to 25 | 26 to 50 |
| CCOC(CC)Nc1nc(OCc2ccc(F)cc2)ncc1F (stereo not shown) [Compound 227] | – | – | – | – | 76 to 100 | 76 to 100 | 76 to 100 | 76 to 100 |
| COc1ccccc1COc1ncc(F)c(NSc2ccccc2[N+](=O)[O-])n1 [Compound 230] | – | – | – | – | 76 to 100 | 76 to 100 | 0 to 25 | 0 to 25 |
| O=C(Nc1ccccc1F)Nc1nc(OCc2cccc(F)c2)ncc1F [Compound 231] | – | – | – | – | 0 to 25 | 0 to 25 | 0 to 25 | 0 to 25 |
| Cc1ccc(COc2ncc(F)c(N)n2)cc1F [Compound 232] | – | – | – | – | 76 to 100 | 76 to 100 | 76 to 100 | 76 to 100 |
| CN(C)/C=N/c1nc(OC(=O)c2c(Cl)cccc2Cl)ncc1F [Compound 234] | – | – | – | – | 76 to 100 | 76 to 100 | 76 to 100 | 76 to 100 |
| ON(Cc1ccccc1)c1nc(OCc2ccc(F)cc2)ncc1F [Compound 235] | – | – | – | – | 76 to 100 | 76 to 100 | 51 to 75 | 76 to 100 |
| CNc1nc(OCc2cccs2)ncc1F [Compound 237] | – | – | – | – | 0 to 25 | 0 to 25 | 0 to 25 | 0 to 25 |
| CCC(Nc1nc(OCc2ccc(F)cc2)ncc1F)Nc1nc(OCc2ccc(F)cc2)ncc1F [Compound 238] | – | – | – | – | 0 to 25 | 51 to 75 | 0 to 25 | 26 to 50 |
| COc1ccccc1COc1ncc(F)c(NC(=S)Nc2ccccc2F)n1 [Compound 239] | – | – | – | – | 76 to 100 | 76 to 100 | 51 to 75 | 76 to 100 |
